# According to patent publication EP0059554A2, “Beta-lactam antibiotics, a process for their preparation and their use in pharmaceutical compositions” (BEECHAM GROUP PLC, priority 1981, dated 1982):
# How the values were obtained:
# Experiment in all cases: MIC in broth
# Format in all cases: cell-based
# [1] = tested on: Escherichia coli JT39 [E96]
# [2] = tested on: Salmonella typhimurium CT10; conditions: Salmonella enterica
# Proteus rettgeri WM16 = conditions: Providencia rettgeri
# [3] = tested on: Staphylococcus aureus Oxford
# [4] = tested on: Streptococcus pyogenes CN10
# [5] = tested on: Pseudomonas aeruginosa A [11]
# [6] = tested on: Proteus mirabilis 977 [13]
# [7] = tested on: Enterobacter cloacae N1 [T753]
# Serratia marcescens US20 = tested on: Serratia marcescens US20
# Bacillus subtilis A = tested on: Bacillus subtilis A
# Proteus vulgaris W091 = tested on: Proteus vulgaris W091
# [8] = tested on: Staphylococcus aureus 1517
# Shigella sonnei MB11967 = tested on: Shigella sonnei MB11967
# Streptococcus faecalia I = tested on: Streptococcus faecalia I
# [9] = tested on: Klebsiella aerogenes A [T767]
# Citrobacter freundii E8 = tested on: Citrobacter freundii E8
# [10] = tested on: Staphylococcus aureus Russell [MB9]
# [11] = tested on: Escherichia coli 0111 [E8]
# Proteus morganii 1580 = conditions: Morganella morganii
# Escherichia coli ESS = tested on: Escherichia coli ESS
# [12] = tested on: Streptococcus pneumoniae CN33
Compound,MIC [1],MIC [2],MIC (Proteus rettgeri WM16),MIC [3],MIC [4],MIC [5],MIC [6],MIC [7],MIC (Serratia marcescens US20),MIC (Bacillus subtilis A),MIC (Proteus vulgaris W091),MIC [8],MIC (Shigella sonnei MB11967),MIC (Streptococcus faecalia I),MIC [9],MIC (Citrobacter freundii E8),MIC [10],MIC [11],MIC (Proteus morganii 1580),MIC (Escherichia coli ESS),further results
"CC(=O)N/C=C/SC1=C(C(=O)O)N2C(=O)[C@H]([C@@H](C)n3cc(C(=O)OCCN)nn3)[C@H]2C1 [Example 7, (5R,6S)-3-[(E)-2-acetamidoethenylthio]-6-[(R)-1-(4-(2-aminoethyloxycarbonyl)triazol-1-yl]ethyl]-7-oxo-1-azabicyclo[3.2.0.]hept-2-ene-2-carboxylic acid]",0.8 µg/mL,1.6 µg/mL,6.2 µg/mL,0.4 µg/mL,0.4 µg/mL,100 µg/mL,25 µg/mL,1.6 µg/mL,3.1 µg/mL,0.8 µg/mL,25 µg/mL,12.5 µg/mL,1.6 µg/mL,50 µg/mL,3.1 µg/mL,0.8 µg/mL,0.4 µg/mL,1.6 µg/mL,,,
"CC(=O)N/C=C/SC1=C(C(=O)O)N2C(=O)[C@H]([C@@H](C)n3cc(C(=O)O)nn3)[C@H]2C1 [Example 6, Disodium (5R,6S)-3-[(E)-2-acetamidoethenylthio]-6-[(R)-1-(4-carboxytriazol-1-yl)ethyl]-7-oxo-1-azabicyclo [3.2.0.] hept-2-ene-2-carboxylate]",3.1 µg/mL,1.6 µg/mL,3.1 µg/mL,6.2 µg/mL,,50 µg/mL,12.5 µg/mL,25 µg/mL,6.2 µg/mL,6.2 µg/mL,12.5 µg/mL,25 µg/mL,3.1 µg/mL,100 µg/mL,1.6 µg/mL,25 µg/mL,6.2 µg/mL,12.5 µg/mL,12.5 µg/mL,1.6 µg/mL,
"CC(=O)NCCSC1=C(C(=O)O)N2C(=O)[C@H]([C@@H](C)n3cc(C(=O)O)nn3)[C@H]2C1 [Example 4, Disodium (SR,6S) - 3 - (2 - acetamidoethylthio) - 6 - [(R) - 1 - (4 - carboxytriazol - 1 - yl)ethyl] - 7 - oxo - 1 - azabicyclo [3.2.0.]hept - 2 - ene - 2 - carboxylate.]",3.1 µg/mL,6.2 µg/mL,6.2 µg/mL,6.2 µg/mL,1.6 µg/mL,100 µg/mL,12.5 µg/mL,3.1 µg/mL,6.2 µg/mL,3.1 µg/mL,6.2 µg/mL,> 100 µg/mL,12.5 µg/mL,100 µg/mL,3.1 µg/mL,1.6 µg/mL,6.2 µg/mL,,25 µg/mL,1.6 µg/mL,MIC [12]: 1.6 µg/mL
